Assay results: ChEMBL document CHEMBL4033775, “Natural-Products-Inspired Use of the gem-Dimethyl Group in Medicinal Chemistry” (J Med Chem, 2018)
Converted amounts (≈) assume the structure as drawn.

Legend:
[1] = biological target: 72 kDa type IV collagenase (Homo sapiens, UniProt P08253); assay: Inhibition of MMP2 (unknown origin) expressed in Escherichia coli BL21(DE3) using Mca-Pro-Leu-Gly-Leu-Dpa-Ala-Arg-NH2 as substrate after 20 to 30 mins by spectrofluorimetric analysis
[2] = biological target: T1, Matrilysin (Homo sapiens, UniProt P09237); assay: Inhibition of MMP7 (unknown origin) expressed in Escherichia coli BL21(DE3) using Mca-Pro-Leu-Gly-Leu-Dpa-Ala-Arg-NH2 as substrate after 20 to 30 mins by spectrofluorimetric analysis
T1 sequence (P09237 whole entry): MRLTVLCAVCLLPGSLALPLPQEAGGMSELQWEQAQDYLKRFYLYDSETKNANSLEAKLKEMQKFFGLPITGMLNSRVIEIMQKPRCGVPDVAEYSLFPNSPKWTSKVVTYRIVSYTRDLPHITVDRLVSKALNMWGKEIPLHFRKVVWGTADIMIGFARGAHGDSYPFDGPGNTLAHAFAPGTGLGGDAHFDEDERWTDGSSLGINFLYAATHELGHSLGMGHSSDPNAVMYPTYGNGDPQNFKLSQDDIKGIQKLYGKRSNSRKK

[3] = biological target: Interstitial collagenase (Homo sapiens, UniProt P03956); assay: Inhibition of human interstitial recombinant N-terminal MMP1 expressed in Escherichia coli BL21(DE3) using Mca-Pro-Leu-Gly-Leu-Dpa-Ala-Arg-NH2 as substrate after 20 to 30 mins by spectrofluorimetric analysis
[4] = biological target: Collagenase 3 (Homo sapiens, UniProt P45452); assay: Inhibition of MMP13 (unknown origin) expressed in Escherichia coli BL21(DE3) using Mca-Pro-Leu-Gly-Leu-Dpa-Ala-Arg-NH2 as substrate after 20 to 30 mins by spectrofluorimetric analysis
[5] = biological target: Matrix metalloproteinase-9 (Homo sapiens, UniProt P14780); assay: Inhibition of MMP9 (unknown origin) expressed in Escherichia coli BL21(DE3) using Mca-Pro-Leu-Gly-Leu-Dpa-Ala-Arg-NH2 as substrate after 20 to 30 mins by spectrofluorimetric analysis
[6] = Aqueous solubility of the compound at physiological pH; type: physicochemical; settings: buffer

Matrix metalloproteinase-9, sequence (P14780 whole entry): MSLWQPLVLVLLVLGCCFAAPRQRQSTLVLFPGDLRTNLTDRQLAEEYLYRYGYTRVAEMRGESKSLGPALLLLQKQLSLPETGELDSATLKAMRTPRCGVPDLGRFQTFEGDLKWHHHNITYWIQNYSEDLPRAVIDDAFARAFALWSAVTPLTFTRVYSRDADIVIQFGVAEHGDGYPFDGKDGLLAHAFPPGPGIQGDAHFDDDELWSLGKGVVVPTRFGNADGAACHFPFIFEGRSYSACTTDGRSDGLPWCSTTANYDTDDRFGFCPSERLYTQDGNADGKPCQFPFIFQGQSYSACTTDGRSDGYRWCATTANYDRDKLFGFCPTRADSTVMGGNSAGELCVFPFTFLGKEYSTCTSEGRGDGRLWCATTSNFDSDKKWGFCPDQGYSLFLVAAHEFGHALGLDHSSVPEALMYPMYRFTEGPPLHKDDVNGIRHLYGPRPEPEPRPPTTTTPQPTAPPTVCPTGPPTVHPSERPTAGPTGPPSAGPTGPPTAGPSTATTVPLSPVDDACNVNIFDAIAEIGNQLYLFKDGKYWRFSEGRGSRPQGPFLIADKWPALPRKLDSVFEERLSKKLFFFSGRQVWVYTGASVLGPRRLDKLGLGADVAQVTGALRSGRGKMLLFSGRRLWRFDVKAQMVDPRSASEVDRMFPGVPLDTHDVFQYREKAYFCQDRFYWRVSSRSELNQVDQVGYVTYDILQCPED
72 kDa type IV collagenase, sequence (P08253 whole entry): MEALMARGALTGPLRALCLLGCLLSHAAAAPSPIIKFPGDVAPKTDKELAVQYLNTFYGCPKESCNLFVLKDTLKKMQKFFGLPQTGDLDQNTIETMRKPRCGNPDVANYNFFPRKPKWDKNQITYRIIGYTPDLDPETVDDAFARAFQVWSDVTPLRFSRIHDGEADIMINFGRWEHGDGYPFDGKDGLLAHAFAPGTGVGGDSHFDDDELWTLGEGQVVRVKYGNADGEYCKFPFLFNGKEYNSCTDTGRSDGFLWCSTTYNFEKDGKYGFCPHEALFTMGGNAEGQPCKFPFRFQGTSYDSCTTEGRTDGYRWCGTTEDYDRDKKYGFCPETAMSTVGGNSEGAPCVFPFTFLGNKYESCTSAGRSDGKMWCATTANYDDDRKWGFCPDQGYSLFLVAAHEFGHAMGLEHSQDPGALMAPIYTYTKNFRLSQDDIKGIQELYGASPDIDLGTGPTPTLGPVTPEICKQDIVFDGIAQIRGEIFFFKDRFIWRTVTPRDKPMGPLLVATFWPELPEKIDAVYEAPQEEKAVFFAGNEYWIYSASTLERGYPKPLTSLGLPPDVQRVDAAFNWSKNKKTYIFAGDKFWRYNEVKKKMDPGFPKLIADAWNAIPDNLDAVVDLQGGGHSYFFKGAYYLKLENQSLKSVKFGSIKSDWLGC
Interstitial collagenase, sequence (P03956 whole entry): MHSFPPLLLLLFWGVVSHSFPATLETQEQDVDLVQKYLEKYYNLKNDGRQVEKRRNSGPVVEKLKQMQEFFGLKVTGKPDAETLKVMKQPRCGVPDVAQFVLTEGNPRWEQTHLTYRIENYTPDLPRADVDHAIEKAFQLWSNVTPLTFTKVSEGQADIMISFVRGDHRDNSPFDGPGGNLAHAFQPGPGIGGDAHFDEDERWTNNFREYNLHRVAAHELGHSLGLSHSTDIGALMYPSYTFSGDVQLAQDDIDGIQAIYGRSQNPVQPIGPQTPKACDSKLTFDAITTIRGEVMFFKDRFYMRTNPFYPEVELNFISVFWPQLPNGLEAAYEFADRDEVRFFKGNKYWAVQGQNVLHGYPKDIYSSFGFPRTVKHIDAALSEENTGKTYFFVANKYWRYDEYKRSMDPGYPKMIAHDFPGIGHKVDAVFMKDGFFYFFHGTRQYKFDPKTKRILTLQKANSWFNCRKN

IC50 [1]	IC50 [2]	IC50 [3]	IC50 [4]	IC50 [5]	solubility [6]	SMILES
1.4 nM	23 nM	0.4 nM	1 nM	0.9 nM	–	COc1ccc(S(=O)(=O)N2CCSC(C)(C)C2C(=O)NO)cc1 (stereo unspecified)
–	–	–	–	–	800 µg/mL (≈ 2140 µM)	COc1ccc(S(=O)(=O)N2CCCSC(C)(C)[C@@H]2C(=O)NO)cc1
